Experimental findings from ChEMBL document CHEMBL3271999, “Antimycotic imidazoles. 2. Synthesis and antimycotic properties of 1-[2-(arylalkyl)-2-phenylethyl]-1H-imidazoles” (1977) are described below.

Format in all cases: functional
The test system of assay [1] is Trichophyton mentagrophytes. The experiment in a line: Antifungal activity against Trichophyton mentagrophytes assessed as lowest dose level for total inhibition of fungal growth.
In a further assay the test system is Candida albicans. Nature of the assay: Antifungal activity against Candida albicans assessed as lowest dose level for total inhibition of fungal growth.
Another assay deals with Saprolegnia. The experiment in a line: Antifungal activity against Saprolegnia species assessed as lowest dose level for total inhibition of fungal growth.
Assay [2] deals with Staphylococcus haemolyticus. The experiment in a line: Antibacterial activity against Staphylococcus haemolyticus assessed as lowest dose level for total inhibition of bacterial growth.
In another assay the test system is Mucor. The experiment in a line: Antifungal activity against Mucor species assessed as lowest dose level for total inhibition of fungal growth.
Another assay deals with Sporothrix schenckii. The experiment in a line: Antifungal activity against Sporothrix schenckii assessed as lowest dose level for total inhibition of fungal growth.
A further assay deals with Trichophyton rubrum. Nature of the assay: Antifungal activity against Trichophyton rubrum assessed as lowest dose level for total inhibition of fungal growth.
In a further assay the test system is Streptococcus pyogenes. Nature of the assay: Antibacterial activity against Streptococcus pyogenes assessed as lowest dose level for total inhibition of bacterial growth.
A further assay deals with Aspergillus fumigatus. Nature of the assay: Antifungal activity against Aspergillus fumigatus assessed as lowest dose level for total inhibition of fungal growth.
A further assay relates to Phialophora verrucosa. The experiment in a line: Antifungal activity against Phialophora verrucosa assessed as lowest dose level for total inhibition of fungal growth.
A further assay has as its system Microsporum canis. Nature of the assay: Antifungal activity against Microsporum canis assessed as lowest dose level for total inhibition of fungal growth.
The test system of another assay is Cryptococcus neoformans. Nature of the assay: Antifungal activity against Cryptococcus neoformans assessed as lowest dose level for total inhibition of fungal growth.
Assay [3] deals with Erysipelothrix rhusiopathiae. Nature of the assay: Antibacterial activity against Erysipelothrix insidiosa assessed as lowest dose level for total inhibition of bacterial growth.
For another assay, the system named is Candida tropicalis. The experiment in a line: Antifungal activity against Candida tropicalis assessed as lowest dose level for total inhibition of fungal growth.

As to `Cc1ccccc1C(Cc1ccc(Cl)cc1Cl)Cn1ccnc1.O=[N+]([O-])O` (stereo not given), the Activity in assay [1] is less than 1 µg/mL; in the assay on Candida albicans, 100 µg/mL; in the assay on Saprolegnia, 100 µg/mL; in assay [2] it was 10 µg/mL; in the assay with Mucor, 10 µg/mL; in the assay with Sporothrix schenckii it was 10 µg/mL. For the same compound, the Activity with Trichophyton rubrum is less than 1 µg/mL; in the assay on Streptococcus pyogenes it was 10 µg/mL; with Aspergillus fumigatus, 10 µg/mL; in the assay with Phialophora verrucosa it was 100 µg/mL; in the assay with Microsporum canis it was 10 µg/mL; in the assay with Cryptococcus neoformans, 10 µg/mL. Also, the Activity in assay [3] stood at 1 µg/mL; with Candida tropicalis it was 100 µg/mL.
On to `Clc1ccc(C(CCc2ccc(Br)cc2)Cn2ccnc2)c(Cl)c1.O=[N+]([O-])O` (stereo not given), for which the Activity in assay [1] is less than 1 µg/mL; in the assay with Candida albicans, more than 100 µg/mL; in the assay on Saprolegnia, 10 µg/mL; in assay [2] it was 10 µg/mL; in the assay with Mucor, more than 100 µg/mL; in the assay with Sporothrix schenckii, 10 µg/mL. The Activity in the assay on Trichophyton rubrum was less than 1 µg/mL; in the assay with Streptococcus pyogenes, less than 1 µg/mL; in the assay with Aspergillus fumigatus, 100 µg/mL; with Phialophora verrucosa, 100 µg/mL; in the assay on Microsporum canis, 10 µg/mL; in the assay on Cryptococcus neoformans it was less than 1 µg/mL. The Activity in assay [3] is less than 1 µg/mL; with Candida tropicalis it was 10 µg/mL.
On to `Cc1ccccc1C(Cc1c(Cl)cccc1Cl)Cn1ccnc1.O=[N+]([O-])O` (stereo not given), for which the Activity in assay [1] was less than 1 µg/mL; with Candida albicans, more than 100 µg/mL; with Saprolegnia, 100 µg/mL; in assay [2] it was 10 µg/mL; in the assay with Mucor, 100 µg/mL; in the assay on Sporothrix schenckii it was 100 µg/mL. Moreover, the Activity in the assay on Trichophyton rubrum was less than 1 µg/mL; in the assay on Streptococcus pyogenes it was less than 1 µg/mL; in the assay with Aspergillus fumigatus, 100 µg/mL; in the assay with Phialophora verrucosa, 100 µg/mL; with Microsporum canis, 10 µg/mL; in the assay with Cryptococcus neoformans, 100 µg/mL. Further, the Activity in assay [3] is less than 1 µg/mL; in the assay with Candida tropicalis, more than 100 µg/mL.
Regarding `Clc1ccc(C(Cc2c(Cl)cccc2Cl)Cn2ccnc2)c(Cl)c1.O=[N+]([O-])O` (stereo not given), the Activity in assay [1] was less than 1 µg/mL; with Candida albicans it was 100 µg/mL; in the assay on Saprolegnia, 100 µg/mL; in assay [2], 100 µg/mL; with Mucor, 100 µg/mL; in the assay with Sporothrix schenckii it was less than 1 µg/mL. Besides, the Activity with Trichophyton rubrum is less than 1 µg/mL; in the assay with Streptococcus pyogenes it was 1 µg/mL; in the assay on Aspergillus fumigatus, 100 µg/mL; with Phialophora verrucosa, 100 µg/mL; in the assay with Microsporum canis, 10 µg/mL; in the assay with Cryptococcus neoformans it was less than 1 µg/mL. Moreover, the Activity amounted to 1 µg/mL in assay [3] and 100 µg/mL in the assay with Candida tropicalis.
Regarding `Clc1ccc(C(CCc2ccccc2Cl)Cn2ccnc2)c(Cl)c1.O=[N+]([O-])O` (stereo not given), the Activity was less than 1 µg/mL in [1]; 10 µg/mL in the assay on Candida albicans; 100 µg/mL in the assay with Saprolegnia; 1 µg/mL in assay [2]; 100 µg/mL in the assay on Mucor; less than 1 µg/mL in the assay with Sporothrix schenckii. The Activity in the assay with Trichophyton rubrum was less than 1 µg/mL; in the assay with Streptococcus pyogenes, 1 µg/mL; with Aspergillus fumigatus, 100 µg/mL; with Phialophora verrucosa, 100 µg/mL; in the assay on Microsporum canis, 10 µg/mL; with Cryptococcus neoformans, less than 1 µg/mL. The Activity is less than 1 µg/mL in assay [3] and more than 100 µg/mL in the assay with Candida tropicalis.
